The target of one experiment is T1, Aurora-2 (Aurora A) (Homo sapiens, UniProt O14965).
T1 sequence (O14965 1-403): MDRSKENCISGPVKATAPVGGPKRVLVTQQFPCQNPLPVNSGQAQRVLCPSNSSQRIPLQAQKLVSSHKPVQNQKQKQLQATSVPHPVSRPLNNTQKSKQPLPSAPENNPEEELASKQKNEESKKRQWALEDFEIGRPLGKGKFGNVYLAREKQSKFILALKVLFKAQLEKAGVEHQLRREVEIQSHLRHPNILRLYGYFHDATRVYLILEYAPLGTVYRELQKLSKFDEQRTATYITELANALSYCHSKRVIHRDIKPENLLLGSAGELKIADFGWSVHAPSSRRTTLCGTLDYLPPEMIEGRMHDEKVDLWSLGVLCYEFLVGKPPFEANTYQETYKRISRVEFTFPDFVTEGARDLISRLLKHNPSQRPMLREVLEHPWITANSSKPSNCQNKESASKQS
As to the kind of experiment: Aurora-2 (Aurora A) Inhibition Assay, coupled enzyme assay. Format: biochemical. As to conditions: 400 μM ATP, 30° C.; read-out: Aurora A kinase activity Ki. The essentials:
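Coupled pyruvate kinase/LDH assay (NADH read-out) with 40 nM Aurora-2, 400 μM ATP and 570 μM Kemptide in 100 mM Hepes pH 7.5, 10 mM MgCl2, at 30 °C. Compound preincubated 10 min (serial dilutions typically from 7.5 μM final); initial rates over 10 min, IC50 and Ki by non-linear regression.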

Another experiment has as its target Aurora-1 (Aurora B) (Homo sapiens, UniProt Q96GD4). The experiment can be described thus: Aurora-1 (Aurora B) Inhibition Assay (radiometric). To be noted: 800 μM ATP; read-out: Aurora B kinase activity Ki. Format: biochemical. The essentials: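 Enzyme at 22 nM in solution with 1.5 mM Kemptide (LRRASLG) in 25 mM HEPES pH 7.5, 10 mM MgCl2, 0.1% BSA, 10% glycerol, 1.7 mM DTT. Compound pre-equilibrated 10 min at 25° C, then [γ-33P]-ATP added at 800 μM final for 3 h. 33P peptide incorporation by phosphocellulose capture and scintillation counting. Ki from initial rates by non-linear regression.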

In a further experiment the test system is Colo205 cells. As to the kind of experiment: Analysis of Cell Proliferation, 3H thymidine incorporation. Format: cell-based. To be noted: Homo sapiens. Put shortly:
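Serially diluted compound added in duplicate to Colo205 cells, 0.1% DMSO diluent control, incubated 72 or 96 hrs at 37C, 5% CO2. 0.5 μCi 3H thymidine added 3 h before end; incorporated radioactivity counted by beta-counter and dose-response curves fitted.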

The target of experiment [1] is N-terminally truncated (Δ 27) Abl kinase (Homo sapiens, UniProt P00519). The experiment can be described thus: Abl Kinase Activity Inhibition Assay, coupled enzyme system. To be noted: 110 μM ATP, 30° C. Format: biochemical. The method, then:
Compounds were screened for their ability to inhibit N-terminally truncated (Δ 27) Abl kinase activity using a standard coupled enzyme system (Fox et al., Protein Sci., 7, pp. 2249 (1998)). Reactions were carried out in a solution containing 100 mM HEPES (pH 7.5), 10 mM MgCl2, 25 mM NaCl, 300 μM NADH, 1 mM DTT and 3% DMSO. Final substrate concentrations in the assay were 110 μM ATP (Sigma Chemicals, St Louis, Mo.) and 70 μM peptide (EAIYAAPFAKKK, American Peptide, Sunnyvale, Calif.). Reactions were carried out at 30° C. and 21 nM Abl kinase. Final concentrations of the components of the coupled enzyme system were 2.5 mM phosphoenolpyruvate, 200 μM NADH, 60 μg/ml pyruvate kinase and 20 μg/ml lactate dehydrogenase.
An assay stock buffer solution was prepared containing all of the reagents listed above with the exception of ATP and the test compound of interest. The assay stock buffer solution (60 μl) was incubated in a 96 well plate with 2 μl of the test compound of interest at final concentrations typically spanning 0.002 μM to 30 μM at 30° C. for 10 min. Typically, a 12 point titration was prepared by serial dilutions (from 1 mM compound stocks) with DMSO of the test compounds in daughter plates. The reaction was initiated by the addition of 5 μl of ATP (final concentration 110 μM). Rates of reaction were obtained using a Molecular Devices Spectramax plate reader (Sunnyvale, Calif.) over 10 min at 30° C. The Ki values were determined from the residual rate data as a function of inhibitor concentration using nonlinear regression (Prism 3.0, Graphpad Software, San Diego, Calif.).

Experiment [2] deals with T2, T315I mutant of human Abl (Homo sapiens, UniProt P00519, T315I).
T2 construct: purchased Upstate Cell Signaling Solutions (Dundee, UK)
The experiment can be described thus: Mutant Abl Kinase (T315I) Activity Inhibition Assay (Upstate, radiometric). Format: biochemical.

Where [3] appears, read: COLO 205, 72 h, 72 hours, read-out: IC50 cell proliferation after 72 hours.
The mark [4] stands for this setting: COLO 205, 96 h, 96 hours, read-out: IC50 cell proliferation after 96 hours.

Where two headings read alike, the source gives them in different places.

Ten compounds from patent US20100137305A1, “AMINOPYRIMIDINES USEFUL AS KINASE INHIBITORS” (VERTEX PHARMACEUTICALS INCORPORATED, priority 2008, published 2010) can be followed below.

Aurora-1 (Aurora B), sequence (Q96GD4 whole entry): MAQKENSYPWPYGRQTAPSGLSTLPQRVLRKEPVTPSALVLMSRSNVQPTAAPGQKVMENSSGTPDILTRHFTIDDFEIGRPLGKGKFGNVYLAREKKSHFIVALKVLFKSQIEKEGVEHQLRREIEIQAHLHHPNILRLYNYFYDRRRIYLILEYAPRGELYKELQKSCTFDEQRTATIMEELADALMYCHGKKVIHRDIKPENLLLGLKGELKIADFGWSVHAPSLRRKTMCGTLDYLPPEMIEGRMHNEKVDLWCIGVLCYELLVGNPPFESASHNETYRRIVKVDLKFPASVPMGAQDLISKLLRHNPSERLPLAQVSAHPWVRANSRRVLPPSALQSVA

For the compound `Cc1cc(Nc2cc(N3CCC(F)(F)C3)nc(Sc3ccc(NC(=O)CC(F)(F)F)cc3)n2)[nH]n1` [Compound I-27], the Ki at Aurora-2 (Aurora A) is at most 10 nM; at Aurora-1 (Aurora B) it was 10 to 50 nM; in experiment [1], 25 to 100 nM; in experiment [2], below 200 nM. For the same compound, the IC50 was 25 to 125 nM in the experiment on Colo205 cells (setting [3]) and 50 to 200 nM in the experiment with Colo205 cells (setting [4]).
Regarding `Cc1cnc(Nc2cc(N3CC[C@@H](N(C)C)C3)nc(Sc3ccc(NC(=O)C4CC4)cc3)n2)s1` [Compound I-29], the Ki at Aurora-2 (Aurora A) was at most 10 nM; at Aurora-1 (Aurora B), 10 to 50 nM; in experiment [1] it was below 25 nM; in experiment [2], below 200 nM. For the same compound, in the experiment with Colo205 cells (setting [4]), the IC50 was in the range of 50 to 200 nM.
For `CCC(=O)Nc1ccc(Sc2nc(Nc3cc(C)n[nH]3)cc(N3CCC(C(C)(C)O)CC3)n2)cc1` [Compound I-42] the same measures were at most 10 nM, 10 to 50 nM, 25 to 100 nM, 200 to 500 nM and at most 50 nM.
Regarding `Cc1cc(Nc2cc(N3CCC(N4CCC(F)C4)CC3)nc(Sc3ccc(NC(=O)CC(F)(F)F)cc3)n2)[nH]n1` (stereo not drawn) [Compound I-63], the Ki on Aurora-2 (Aurora A) is at most 10 nM; on Aurora-1 (Aurora B) it was at most 10 nM; in experiment [1], 25 to 100 nM; in experiment [2] it was below 200 nM. The IC50 in the experiment with Colo205 cells (setting [3]) is at most 25 nM.
Consider `Cc1cc(Nc2cc(N3CCC(N4CCCC4)CC3)nc(Sc3ccc(NC(=O)C4(C(F)(F)F)CC4)cc3)n2)[nH]n1` [Compound I-65], for which the Ki on Aurora-2 (Aurora A) was at most 10 nM; on Aurora-1 (Aurora B) it was 10 to 50 nM; in experiment [1] it was 25 to 100 nM; in experiment [2], below 200 nM. Further, the IC50 in the experiment with Colo205 cells (setting [3]) is at most 25 nM.
`Cc1cc(Nc2cc(N3CCC(N4CCCC4)CC3)nc(Sc3ccc(NC(=O)CC(F)(F)F)cc3)n2)[nH]n1` [Compound I-68]: the Ki at Aurora-2 (Aurora A) is at most 10 nM; on Aurora-1 (Aurora B) it was 10 to 50 nM; in experiment [1], below 25 nM; in experiment [2], below 200 nM. Moreover, the IC50 in the experiment with Colo205 cells (setting [3]) was at most 25 nM.
Regarding `Cc1cc(Nc2cc(N3CC4CCCN(C)C4C3)nc(Sc3ccc(NC(=O)CC(F)(F)F)cc3)n2)[nH]n1` (stereo not drawn) [Compound I-69, 3,3,3-trifluoro-N-(4-(4-(3-methyl-1H-pyrazol-5-ylamino)-6-(1-methyltetrahydro-1H-pyrrolo[3,4-b]pyridin-6(2H,7H,7aH)-yl)pyrimidin-2-ylthio)phenyl)propanamide], the Ki is at most 10 nM at Aurora-2 (Aurora A), at most 10 nM on Aurora-1 (Aurora B), 25 to 100 nM in experiment [1] and below 200 nM in experiment [2]. Further, in the experiment on Colo205 cells (setting [3]), the IC50 is at most 25 nM.
Take `Cc1cc(Nc2cc(N3CCC(F)C3)nc(Sc3ccc(NC(=O)CC(F)(F)F)cc3)n2)[nH]n1` (stereo not drawn) [Compound I-71]: the Ki is at most 10 nM at Aurora-2 (Aurora A), at most 10 nM on Aurora-1 (Aurora B), 25 to 100 nM in experiment [1] and below 200 nM in experiment [2]. Besides, the IC50 with Colo205 cells (setting [3]) was at most 25 nM.
In the case of `Cc1cc(Nc2cc(N3CCC(O)CC3)nc(Sc3ccc(NC(=O)CC(F)(F)F)cc3)n2)[nH]n1` [Compound I-80], the Ki at Aurora-2 (Aurora A) is at most 10 nM; at Aurora-1 (Aurora B), at most 10 nM; in experiment [1], 25 to 100 nM; in experiment [2], below 200 nM. The IC50 with Colo205 cells (setting [3]) fell in the range of 25 to 125 nM.
On to `Cc1cc(Nc2cc(N3CCC(F)C3)nc(Sc3ccc(NC(=O)CCC(F)(F)F)cc3)n2)[nH]n1` (stereo not drawn) [Compound I-81], for which the Ki on Aurora-2 (Aurora A) is at most 10 nM; on Aurora-1 (Aurora B), 10 to 50 nM; in experiment [1], 25 to 100 nM; in experiment [2], below 200 nM. Moreover, the IC50 in the experiment on Colo205 cells (setting [3]) is 25 to 125 nM.
